Test results reported in patent publication US9006255B2, “Quinazoline derivatives” (Merck Patent GmbH, priority 2010, dated 2015).
pIC50: −log10 of the molar value.

Experiments:
[1] = molecular target: DNA-PK protein complex (Homo sapiens, UniProt P78527); assay: DNA-PK kinase assay (FlashPlate, 33P-ATP); assay type: biochemical; conditions: biotin-DNA-PK peptide substrate, 5 μM ATP, 90 minutes at room temperature
Procedure: Description of the Method for the Testing of DNA-PK Inhibitors
The kinase assay is carried out in […] microtitre FlashPlates®, coated with streptavidin. 1.5 μg of the DNA-PK protein complex and […] of biotinylated substrate, for example PESQEAFADLWKK biotin-NH2 (“biotin-DNA-PK peptide”) in a total volume of 36.5 μl (34.25 mM Hepes/KOH, 7.85 mM Tris-HCl, 68.5 mM KCl, 5 μM ATP, 6.85 mM MgCl2, 0.5 mM EDTA, 0.14 mM EGTA, 0.69 mM DTT, pH 7.4), are incubated at room temperature for 90 minutes with or without test substance in a well containing 500 ng of DNA from calf thymus, 0.1 μCi of 33P-ATP and 1.8% of DMSO. The reaction is stopped by addition of 50 μl/well of 200 mM EDTA. After incubation for 30 minutes, the liquids are removed at room temperature. Each well is washed three times with 100 μl of 0.9% NaCl solution. Non-specific reaction (blank) is determined using a proprietary kinase inhibitor (10 μM). The radioactivity is measured by means of a Topcount. IC50 values calculated in RS1. Literature: Molecular Cancer Therapeutics 2003, 1257-1264; DNA-dependent protein kinase inhibitors as drug candidates for the treatment of cancer; A. Kashishian, H. Douangpanya, D. Clark, S. T. Schlachter, C. Todd Eary, J. G. Schiro, H. Huang, L. E. Burgess, E. A. Kesicki, and J. Halbrook.

[2] = test system: PI3K; assay: Cellular testing of PI3K inhibitors: P-S473-PKB Luminex assay in PC3 cells; assay type: cell-based; conditions: phosphorylation of PKB at Serin 473, 30 min incubation, serum-free
Procedure: Description of the Method for the Cellular Testing of PI3K Inhibitors The measure used for the cellular PI3K activity is the PI3K-dependent phosphorylation of PKB at Serin 473. The cellular assay for determination of the P-S473-PKB level is carried out as a Luminex assay in 96-well format in PC3 cells. […] PC3 cells are sown out with 20,000 cells per well in 100 μl medium (45% RPMI1460/45% Ham's F12/10% FCS) and incubated on the following day for 30 min with a serial dilution of the test substance (7 concentrations) under serum-free conditions. The cells are subsequently lysed using 90 μl of lysis buffer (20 mM Tris/HCl pH 8.0, 150 mM NaCl, 1% NP40, 10% glycerol, 1% phosphatase inhibitor I, 1% phosphatase inhibitor II, 0.1% protease inhibitor cocktail III, 0.01% benzonase) per well, and the lysates are separated off from insoluble cell constituents by means of centrifugation through a 96-well filter plate (0.65 μm). The lysates are incubated overnight at 4° C. with shaking with Luminex beads to which an anti-total PKB antibody is coupled. The detection is carried out on the following day by addition of a P-S473-PKB antibody and a species-specific PE-labelled secondary antibody. The detection of P-S473-PKB is carried out by measurement in a Luminex100 instrument by determination of 100 events per cavity in a measurement time of 60 sec. As pharmacological blank, the signals obtained from cells which have been treated with 3 μM wortmannin are subtracted from all other preparations. The control value used for maximum phosphorylation of PKB at S473 are the signals from cells which have been treated only with the solvent (0.3% DMSO). The values of the preparations treated with test substance are calculated from this as percent of control, and IC50 values are determined by means of RS1.

Compound	pIC50 [1]	pIC50 [2]
COc1cc2c(cc1OC)CN(c1ncnc3ccc(-c4cnc5[nH]ccc5c4)nc13)CC2 [Compound A7, 4-(6,7-dimethoxy-3,4-dihydro-1H-isoquinolin-2-yl)-6-(1H-pyrrolo[2,3-b]pyridin-5-yl)pyrido[3,2-d]pyrimidine]	7.00 to 9.00	
Cc1nc2cc(-c3ccc4ncnc(N5CCCc6ccccc65)c4c3)cnc2[nH]1 [Compound A5, 4-(3,4-dihydro-2H-quinolin-1-yl)-6-(2-methyl-3H-imidazo-[4,5-b]pyridin-6-yl)quinazoline]	7.00 to 9.00	5.00 to 7.00
c1ccc2c(c1)CN(c1ncnc3ccc(-c4cnc5[nH]ccc5c4)cc13)C2 [Compound A2, 4-(1,3-dihydroisoindol-2-yl)-6-(1H-pyrrolo[2,3-b]pyridin-5-yl)quinazoline]	7.00 to 9.00	5.00 to 7.00
c1ccc2c(c1)CCN2c1ncnc2ccc(-c3cnc4[nH]ccc4c3)cc12 [Compound A1, 4-(2,3-dihydroindol-1-yl)-6-(1H-pyrrolo[2,3-b]pyridin-5-yl)quinazoline]	7.00 to 9.00	5.00 to 7.00
c1ccc2c(c1)CCN(c1ncnc3ccc(-c4cnc5[nH]ccc5c4)nc13)C2 [Compound A6, 4-(3,4-dihydro-1H-isoquinolin-2-yl)-6-(1H-pyrrolo[2,3-b]pyridin-5-yl)pyrido[3,2-d]pyrimidine]	7.00 to 9.00	5.00 to 7.00
COc1cc2c(cc1OC)CN(c1ncnc3ccc(-c4cnc5[nH]c(C)nc5c4)nc13)CC2 [Compound A9, 4-(6,7-dimethoxy-3,4-dihydro-1H-isoquinolin-2-yl)-6-(2-methyl-3H-imidazo[4,5-b]pyridin-6-yl)pyrido[3,2-d]pyrimidine]	7.00 to 9.00	7.00 to 9.00
Cc1nc2cc(-c3ccc4ncnc(N5CCc6ccccc6C5)c4n3)cnc2[nH]1 [Compound A8, 4-(3,4-dihydro-1H-isoquinolin-2-yl)-6-(2-methyl-3H-imidazo[4,5-b]pyridin-6-yl)-pyrido[3,2-d]pyrimidine]	7.00 to 9.00	7.00 to 9.00
c1ccc2c(c1)CCCN2c1ncnc2ccc(-c3cnc4[nH]ccc4c3)cc12 [Compound A3, 4-(3,4-dihydro-2H-quinolin-1-yl)-6-(1H-pyrrolo[2,3-b]pyridin-5-yl)quinazoline]	7.00 to 9.00	5.00 to 7.00
COc1ccc2c(c1)CN(c1ncnc3ccc(-c4cnc5[nH]c(C)nc5c4)cc13)CC2 [Compound A11, 4-(7-methoxy-3,4-dihydro-1H-isoquinolin-2-yl)-6-(2-methyl-3H-imidazo[4,5-b]pyridin-6-yl)quinazoline]	7.00 to 9.00	7.00 to 9.00
Cc1nc2cc(-c3ccc4ncnc(N5CCC(=O)c6ccccc65)c4c3)cnc2[nH]1 [Compound A13, 1-[6-(2-methyl-3H-imidazo[4,5-b]pyridin-6-yl)quinazolin-4-yl]-2,3-dihydro-1H-quinolin-4-one]	7.00 to 9.00	5.00 to 7.00
Cc1nc2cc(-c3ccc4ncnc(N5CCc6ccccc6C5)c4c3)cnc2[nH]1 [Compound A4, 4-(3,4-dihydro-1H-isoquinolin-2-yl)-6-(2-methyl-3H-imidazo[4,5-b]pyridin-6-yl)quinazoline]	7.00 to 9.00	7.00 to 9.00
Cc1nc2cc(-c3ccc4ncnc(N5CCOc6ccccc65)c4c3)cnc2[nH]1 [Compound A12, 4-[6-(2-methyl-3H-imidazo[4,5-b]pyridin-6-yl)quinazolin-4-yl]-3,4-dihydro-2H-benzo-1,4-oxazine]	7.00 to 9.00	5.00 to 7.00
CCc1nc2cc(-c3ccc4ncnc(N5CCc6ccccc6C5)c4c3)cnc2[nH]1 [Compound A10, 4-(3,4-dihydro-1H-isoquinolin-2-yl)-6-(2-ethyl-3H-imidazo[4,5-b]pyridin-6-yl)quinazoline]	7.00 to 9.00	7.00 to 9.00
